# Key:
# [1] = system: pool of 4 yeast species (Candida tropicalis DCS 604, Zygosaccharomyces bailii DCS 1167 and DCS 1172, Pichia spp DCS 1175); test: BBQ sauce challenge study, yeast count on YGC agar; type: cell-based; settings: for Cell counts on YGC-agar (yeast growth): BBQ sauce 20° C., Potassium Sorbate 0.1%
# Experimental: Samples of the BBQ sauce (formula in table 9) with and without the experimental blend were produced in the Danisco Culinary Application Laboratory, Brabrand.
# Each batch was split (scheme table 8) in probes of 90 gram and placed in sterile jars. 42 probes of each batch were inoculated with the desired level of yeast and 5 probes of each batch were inoculated with mould spores, respectively at a targeted inoculation rate of 500 to 1000 CFU/g.
# (§1) The viscous products were thoroughly mixed (2 minutes) within 10 minutes of inoculation to ensure that the inoculum was evenly distributed throughout the product. One sample remained un-inoculated and was used as negative control to monitor the native contamination flora. All samples were incubated at ambient temperature (20° C.) and assayed for yeast, plated on an appropriate yeast medium, until confirmed failure (≧1.0E+06 CFU/g) or until visible mould growth, respectively. In parallel, the growth of lactic acid bacteria and total cell count were monitored on MRS and PCA in all the batches and the non-inoculated blind, respectively.
# In total 8 strains, from available from Danisco's Culture Collection (DCS) (Danisco A/S, Brabrand, Denmark) were employed as one yeast and one mould pool in the respective BBQ sauce. Originally, they were isolated e.g. from spoiled ketchup, mayonnaise. Salsa dressing or obtained from official culture collections such as DMSZ.
# Before each experiment, a stock culture of each yeast, maintained at −86° C. in suitable broth containing glycerol 50% (v/v), was propagated through two consecutive growth cycles in suitable media (YGC-agar (VWR) pH 5.1+0.2; YM Broth (Becton, Dickinson and company) at pH 6.0±0.2 at and temperature (25° C.). The overnight cultures are diluted in saline solution to obtain working cultures. A cocktail of the yeasts was generated by adding equal cell counts of each culture into a sterile container and mixed appropriately. The yeast cocktail was diluted and inoculated into the product in order to achieve the final desired concentration. Pool counts were verified via plate count.
# The BBQ sauces were assayed at time zero, day 2, day 5, day 12, weekly until week 10 (day 68) and bi-weekly thereafter until week 19 (day 131). CFU/g was detected for 3 samples from each batch inoculated with yeast. Before each sampling (closed jar), the sample was thoroughly mixed. 10 gram sample were aseptically pulled from each jar and diluted with peptone water. Each sample was stomached (1 min, normal setting) plated in duplicate onto YGC agar (VWR) and MRS (VWR), and incubated at 25° C. for 5 days and 37° C. for 3 days, respectively.
# [2] = system: pool of 4 mould species (Penicillium sp DCS 1380, Aspergillus versicolor DCS 1069, Aspergillus parasiticus DCS 709, Mucor sp DCS 1140); test: Salsa sauce fresh challenge study, mould growth; type: cell-based; settings: Salsa sauce 4° C.; blends 1%
# Experimental: Each batch was split (scheme table 15) in probes of 90 gram and placed in sterile jars. 21 probes of each batch were inoculated with the desired level of yeast and 5 probes of each batch were inoculated with mould spores, respectively at a targeted inoculation rate of 300 to 800 CFU/g.
# as §1, with “incubated in the dark” for “incubated”, “chilled” for “ambient”, “(4°” for “(20°”
# Mould spores were prepared as follows: approx. 2 ml of sterile demineralised water was used to wash the spores off an out-grown mould cultivar (minimum 5 day old plate). This suspension is transferred to a sterile container. Pool counts were verified via plate count.
# 5 samples from each batch inoculated with mould were visually analysed for mould growth.
# [3] = Ranch dressing challenge study, pH measurement; type: physicochemical; settings: 0.1%, non-inoculated sample
# Description: A pH measurement of non-inoculated sample material took place at every sampling date using a Mettler Toledo Seven Easy pH meter.
smiles,measurement,setting,value
"C/C=C/C=C/C(=O)[O-].[K+] [Potassium Sorbate, potassium sorbate]",initial reduction of the inoculated cell load,"[1]; BBQ sauce, YM10 1% and 0.5%, potassium sorbate",3 log
same,Cell counts on YGC-agar (yeast growth),"[1]; day 0, YM10 1%, MG200 1%, Competitor product 1.25%",6.07E+02 CFU/g
same,Cell counts on YGC-agar (yeast growth),"[1]; day 2, YM10 1%, MG200 1%, Competitor product 1.25%",1.47E+02 CFU/g
same,Cell counts on YGC-agar (yeast growth),"[1]; day 5, YM10 1%, MG200 1%, Competitor product 1.25%",2.50E+01 CFU/g
same,Cell counts on YGC-agar (yeast growth),"[1]; day 12, YM10 1%, MG200 1%, Competitor product 1.25%",1.00E+00 CFU/g
same,Cell counts on YGC-agar (yeast growth),"[1]; day 19, YM10 1%, MG200 1%, Competitor product 1.25%",1.00E+00 CFU/g
same,Cell counts on YGC-agar (yeast growth),"[1]; day 26, YM10 1%, MG200 1%, Competitor product 1.25%",1.00E+00 CFU/g
same,Cell counts on YGC-agar (yeast growth),"[1]; day 41, YM10 1%, MG200 1%, Competitor product 1.25%",1.00E+00 CFU/g
same,Cell counts on YGC-agar (yeast growth),[1]; day 49,1.00E+00 CFU/g
same,Cell counts on YGC-agar (yeast growth),[1]; day 55,1.00E+00 CFU/g
same,Cell counts on YGC-agar (yeast growth),[1]; day 68,1.00E+00 CFU/g
same,Cell counts on YGC-agar (yeast growth),[1]; day 82,1.00E+00 CFU/g
same,Cell counts on YGC-agar (yeast growth),[1]; day 104,1.00E+00 CFU/g
same,Cell counts on YGC-agar (yeast growth),[1]; day 117,1.00E+00 CFU/g
same,Cell counts on YGC-agar (yeast growth),[1]; day 131,2.50E+01 CFU/g
same,control of mould outgrowth (plate count in yeast inoculated samples),[2],12 weeks
same,pH development of the Ranch dressing batch,[3]; day 0,4.02
same,pH development of the Ranch dressing batch,[3]; day 3,4.00
same,pH development of the Ranch dressing batch,[3]; day 7,4.02
same,pH development of the Ranch dressing batch,[3]; day 14,4.00
same,pH development of the Ranch dressing batch,[3]; day 28,3.94
same,pH development of the Ranch dressing batch,[3]; day 42,3.96
same,pH development of the Ranch dressing batch,[3]; day 56,3.96
same,pH development of the Ranch dressing batch,[3]; day 64,3.95
same,pH development of the Ranch dressing batch,[3]; day 90,3.96
same,pH development of the Ranch dressing batch,[3]; day 157,3.92
same,pH development of the Ranch dressing batch,[3]; day 198,3.94

# From patent publication US20130287918A1, “MICROBICIDAL COMPOSITION” (DUPONT NUTRITION DIOSCIENCES APS, priority 2010, published 2013)
